Experimental data published in patent publication US6518412B1, “Gene therapy approaches to supply apolipoprotein A-I agonists and their use to treat dyslipidemic disorders” (priority 1997, dated 2003).
Values belong to the molecule of their own block, whether it stands above or below them. Where a SMILES comes first, the peptide text is derived from it. Where no end group is shown, it is not given here.

Tests used:
[1] = test system: EPC/Chol (20:1) small unilamellar vesicles; test: Lipid binding by fluorescence spectroscopy
Experimental: The lipid binding properties of the peptides described in Section 6, supra, were tested by fluorescence measurements with labeled peptides, in the present case Tryptophane (Trp or W) or Naphtylalanine (Nal). The fluorescence spectra were recorded on a Fluoromax from Spex (Jobin-Yvon) equipped with a Xenon lamp of 150W, two monochromators (excitation and emission), a photomultiplier R-928 for detection sensitive in the red up to 850 nm and a thermoelectric magnetic stirred cell holder. Quartz Suprasil cuvettes were used for measurements in the micromolar concentration range. A device of variable slits (from 0.4 to 5 nm) allows modulation of the incident and emitted intensities according to the concentration of peptide used. The reported values are in general the average of between 2 to 4 spectra. The peptide concentration is determined by absorption spectrometry on a Philips PU 8800 using the absorption band of the Trp (∈280 nm=5,550 M^−1 cm^−1 in Tris buffer) or the Nal (∈224 nm=92,770 M^−1 cm^−1 in methanol).
Fluorescence spectra of the peptides were recorded between 290 nm and 450 nm in Tris-HCl buffer (20 mM, pH=7.5), in the presence and absence of lipidic vesicles. The small unilamellar vesicles were formed after rehydration in buffer of the lyophilized phospholipids, dispersion and tip sonification under a N2 stream. The lipids used were either Egg PC/Chol. (20:1) or POPC/Chol. (20:1). The spectra were recorded at a peptide concentration of 2 μM and at a temperature of 37° C. The fluorescence reference standard in the case of Trp was N-acetyltryptophanylamide (NATA).
Lipid binding studies were done through progressive lipidic vesicle addition to the peptide in solution at 2 μM (slits:5 nm in excitation and 1.5 nm in emission). Dilution effects were taken into account for the fluorescence intensity determination. The lipid concentrations were varied from 10 to 600 μM and the molar ratio of lipid to peptide (Ri) was varied from 5 to 300. The wavelength of excitation was set at 280 nm for both Trp and Nal.
The data were directly recorded and treated by an IBM-PC linked to the spectrofluorimeter through the DM3000F software from Spex. The spectra were corrected by substraction of the solvent contribution and by application of a coefficient given by the constructor taking into account the variation of the photomultiplier response versus the wavelength.
The fluorescence spectra of the peptides were characterized by the wavelength at their maximum of fluorescence emission and by their quantum yield compared to NATA in the case of peptides labeled with a tryptophane. The process of binding to lipids was analyzed by calculating the shift of the wavelength at the maximum of fluorescence emission, (λmax), and the variation of the relative fluorescence intensity of emission versus the lipid concentration. The relative fluorescence intensity is defined as the following ratio: (I-I0)λmax/I0λmax. I and I0 are both measured at the (λmax) corresponding to the initial free state of the peptide, i.e., without lipids. I is the intensity at a defined lipid to peptide ratio and I0 is the same parameter measured in absence of lipids. The absence of these variations is relevant of the absence of interactions of the peptides with the lipids.

[2] = biological target: T1, LCAT (purified from human plasma) (Homo sapiens, UniProt P04180); test: LCAT activation assay; format: biochemical; details: for LCAT activation as compared with native ApoA-I: native ApoA-I = 100% activation
T1 construct: from tissue; host or cells: human plasma
T1 sequence (P04180 25-440): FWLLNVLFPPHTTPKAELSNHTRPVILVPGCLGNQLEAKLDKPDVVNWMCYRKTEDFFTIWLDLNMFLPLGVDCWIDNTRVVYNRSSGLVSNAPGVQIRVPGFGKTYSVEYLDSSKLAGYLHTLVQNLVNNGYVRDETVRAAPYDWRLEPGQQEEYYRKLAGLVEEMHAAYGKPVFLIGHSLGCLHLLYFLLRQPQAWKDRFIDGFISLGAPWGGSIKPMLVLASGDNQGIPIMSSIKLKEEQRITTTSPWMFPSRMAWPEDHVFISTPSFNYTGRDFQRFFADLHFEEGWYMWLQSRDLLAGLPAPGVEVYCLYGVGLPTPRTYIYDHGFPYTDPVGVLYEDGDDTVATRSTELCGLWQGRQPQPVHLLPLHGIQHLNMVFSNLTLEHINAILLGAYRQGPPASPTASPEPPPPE
Experimental: Examples of peptides which may be encoded by the nucleotides of the present invention are listed in Table VIII which also includes peptides which are chemically synthesized. […] All of the peptides listed were analyzed in vitro for their ability to activate LCAT. In the LCAT assay, substrate vesicles (small unilamellar vesicles or “SUVs”) composed of egg phophatidylcholine or 1-Palmitoyl-2-oleyl-phosphatidylcholine (POPC) and radiolabelled cholesterol are preincubated with equivalent masses either of peptide or ApoA-I (isolated from human plasma). The reaction is initiated by addition of LCAT (purified from human plasma). Native ApoA-I, which was used as positive control, represents 100% activation activity. “Specific activity” (i.e., units of activity (LCAT activation)/unit of mass) of the peptides can be calculated as the concentration of peptide that achieves maximum LCAT activation. For example, a series of concentrations of the peptide (e.g., a limiting dilution) can be assayed to determine the “specific activity” for the peptide—the concentration which achieves maximal LCAT activation (i.e., percentage conversion of cholesterol to cholesterol ester) at a specific timepoint in the assay (e.g., 1 hr.). When plotting percentage conversion of cholesterol at, e.g., 1 hr., against the concentration of peptide used, the “specific activity” can be identified as the concentration of peptide that achieves a plateau on the plottal curve.
The vesicles used in the LCAT assay are SUVs composed of egg phosphatidylcholine (EPC) or 1-palmitoyl-2-oleyl-phosphatidylcholine (POPC) and cholesterol with a molar ratio of 20:1. To prepare a vesicle stock solution sufficient for 40 assays, 7.7 mg EPC (or 7.6 mg POPC; 10 μmol), 78 μg (0.2 μmol) 4-^14C-cholesterol, 116 μg cholesterol (0.3 μmol) are dissolved in 5 ml xylene and lyophilized. Thereafter 4 ml of assay buffer is added to the dry powder and sonicated under nitrogen atmosphere at 4° C. Sonication conditions: Branson 250 sonicator, 10 mm tip, 6.5 minutes; Assay buffer: 10 mM Tris, 0.14M NaCl, 1 mM EDTA, pH 7.4). […]

[3] = HDL cholesterol in rabbits after injection of phospholipid/peptide complex; format: in vivo, Male New Zealand White rabbits; details: for Increase in HDL Cholesterol (%): 8 mg/kg i.v. as peptide/DPPC complexes
Experimental: Small discoidal particles consisting of phospholipid (DPPC) and peptide 146 (SEQ ID NO:146) were prepared following the cholate dialysis method. The phospholipid was dissolved in chloroform and dried under a stream of nitrogen. The peptide was dissolved in buffer (saline) at a concentration of 1-2 mg/ml. The lipid film was redissolved in buffer containing cholate (43° C.) and the peptide solution was added at a 3-1 phospholipid/peptide ratio. The mixture was incubated overnight at 43° C. and then dialyzed at 43° C. (24 hr.), room temperature (24 hr.) and 4° C. (24 hr.), with three changes of buffer (large volumes) at temperature point. The complexes were filter sterilized (0.22μ) for injection and storage at 4° C. The particles were separated on a gel filtration column (Superose 6 HR). The position of the peak containing the particles was identified by measuring the phospholipid concentration in each fraction. From the elution volume, the Stokes radius can was determined. The concentration of peptide in the complex was determined by determining the phenylalanine content (by HPLC) following a 16 hr. acid hydrolysis. Male New Zealand White rabbits (2.5-3 kg) were injected intravenously with a dose of phospholipid/peptide complex (8 mg/kg bodyweight peptide 146 (SEQ ID NO:146) or 10 mg/kg bodyweight ApoA-I, expressed as peptide or protein content) in a single bolus injection not exceeding 10-15 ml. The animals were slightly sedated before the manipulations. Blood samples (collected on EDTA) were taken before and 5, 15, 30, 60, 240 and 1440 minutes after injection. The hematocrit (Hct) was determined for each sample. Samples were aliquoted and stored at −20° C. before analysis. Plasma Lipids. The total plasma cholesterol, plasma triglycerides and plasma phospholipids were determined enzymatically using commercially available assays according to the manufacturer's protocols (Boehringer Mannheim, Mannheim, Germany and Biomérieux, 69280, Marcy-l'étoile, France). Lipoprotein Profiles. The plasma lipoprotein profiles of the fractions obtained after the separation of the plasma into its lipoprotein fractions were determined by spinning in a sucrose density gradient. The fractions were collected and in each individual fraction the phospholipid and cholesterol content was measured enzymatically.

λmax ([1]; Ri 0, in buffer, 2 μM): 350 nm
Molecule: CC(=O)N[C@@H](Cc1c[nH]c2ccccc12)C(N)=O [NATA, N-acetyltryptophanylamide, reference compound]

LCAT activation as compared with native ApoA-I [2]: 10%
Molecule: CC(=O)N1CCC[C@H]1C(=O)N[C@H](C(=O)N[C@@H](CC(C)C)C(=O)N[C@@H](CC(=O)O)C(=O)N[C@@H](CCC(=O)O)C(=O)N[C@@H](Cc1ccccc1)C(=O)N[C@@H](CCCN=C(N)N)C(=O)N[C@@H](CCC(=O)O)C(=O)N[C@@H](CCCCN)C(=O)N[C@@H](CC(C)C)C(=O)N[C@@H](CC(N)=O)C(=O)N[C@@H](CCC(=O)O)C(=O)N[C@@H](CCC(=O)O)C(=O)N[C@@H](CC(C)C)C(=O)N[C@@H](CCC(=O)O)C(=O)N[C@@H](C)C(=O)N[C@@H](CC(C)C)C(=O)N[C@@H](CCCCN)C(=O)N[C@@H](CCC(N)=O)C(=O)N[C@@H](CCCCN)C(=O)N[C@@H](CC(C)C)C(=O)N[C@@H](CCCCN)C(N)=O)C(C)C [consensus 22-mer] (Ac-PVLDEFREKLNEELEALKQKLK-NH2)

lipid to peptide molar ratio at which burying of the tryptophane residue is maximal ([1]; EPC/Chol (20:1) SUVs): about 100
λmax ([1]; Ri 0, in buffer, 2 μM): 348 nm
λmax ([1]; Ri 5): 344 nm
λmax ([1]; Ri 10): 339 nm
λmax ([1]; Ri 30): 328 nm
λmax ([1]; Ri 100): 326 nm
λmax ([1]; Ri 200): 325 nm
lipid binding ([1]; small unilamellar vesicles): binds very effectively
Molecule: PVLDLFRELWEELKQKLK* (not fully specified (N-terminus, C-terminus); printed as PVLDLFRELWEELKQKLK*; also: terminal modification marked *, not defined here) [peptide 199]

Molecule: PVLELFENLLERLLDALQKKLK [peptide 146]
Increase in HDL Cholesterol (%) ([3]; 5 min): 31.3%
Increase in HDL Cholesterol (%) ([3]; 15 min): 60.4%
Increase in HDL Cholesterol (%) ([3]; 60 min): 42.9%
Increase in HDL Cholesterol (%) ([3]; 240 min, 8 mg/kg): 90%
Increase in HDL Cholesterol (%) ([3]; 240 min, listed as Peptide 146, 8 mg/kg): 90.2%
Increase in HDL Cholesterol (%) ([3]; 1440 min): 71.2%
duration of the increase in cholesterol of the HDL cholesterol fractions ([3]; 8 mg/kg, apparent at 5 min following injection): approximately 24 hr

ACTIVITY (%) LCAT ([2]; LCAT activation as compared with native human ApoA-I): 0%
Molecule: PVLELFERLLEDLQKKLK [peptide 229]

LCAT activation as compared with native ApoA-I [2]: less than 4%
Molecule: peptide 18AM4: peptide ApoA-I mimic described in the literature (Corinjn et al., 1993) (EWLEAFYKKVLEKLKELF)
